Laboratory results from US8329644B2, “Lantibiotic-based compounds having antimicrobial activity” (Novacta Biosystems Limited, priority 2007, dated 2012).
Values joined by “and” are separate entries in the source; they are usually repeats but may differ in a detail not shown here. Equal entries are not always repeated.

What was measured:
[1] = system: S. oralis; assay: MIC susceptibility testing, S. oralis; type: cell-based; settings: S. oralis 7862912.1; Viridans streptococci; Table 3
Protocol: (§1) Susceptibility testing for all aerobic organisms with the exception of Streptococcus pneumoniae was performed by two-fold serial antibiotic dilutions in Mueller-Hinton Broth supplemented with 50 μg/ml Ca^2+ unless otherwise noted. Susceptibility testing for S. pneumoniae was performed by two-fold serial antibiotic dilutions in Brain-Heart-Infusion Broth supplemented with 50 μg/ml Ca^2+ unless otherwise noted. Actively growing broth cultures were diluted to contain […] by adjusting to an OD600 of 0.2-0.3. They were then diluted a further 1:100 in fresh sterile broth. The assays were performed in duplicate in sterile 96-well microtitre plates in a total volume of 200 μl (160 μl broth, 20 μl antimicrobial agent, 20 μl inoculum) in a concentration range from 64 μg/ml to 0.06 μg/ml. […] Clinical isolates of Clostridium difficile were tested in Wilkins-Chalgren Anaerobe Agar under anaerobic conditions. In all cases, vancomycin was used as a reference antibiotic

[2] = system: S. acidominimus; assay: MIC susceptibility testing, S. acidominimus; type: cell-based; settings: S. acidominimus 7862865; Viridans streptococci; Table 3
Protocol: as §1

[3] = system: E. faecium; assay: MIC susceptibility testing, E. faecium; type: cell-based
Protocol: as §1

[4] = system: Bifidobacterium adolescentis; assay: MIC against intestinal flora organisms, Bifidobacterium adolescentis; type: cell-based; settings: Bifidobacterium adolescentis NCTC 11814; Table 5
[5] = system: E. coli; assay: MIC against intestinal flora organisms, E. coli; type: cell-based
Protocol: as §1

[6] = system: Bacteroides thetaiotaomicron; assay: MIC against intestinal flora organisms, Bacteroides thetaiotaomicron; type: cell-based; settings: Bacteroides thetaiotaomicron NCTC 10582; Table 5
[7] = system: S. pneumoniae; assay: MIC susceptibility testing, S. pneumoniae (Brain-Heart-Infusion Broth); type: cell-based, Streptococcus pneumoniae; settings: S. pneumoniae R6; Table 2
Protocol: as §1

[8] = system: S. mitis; assay: MIC susceptibility testing, S. mitis; type: cell-based; settings: Viridans streptococci, Table 3
Protocol: as §1

[9] = system: M. luteus; assay: MIC susceptibility testing, M. luteus; type: cell-based; settings: M. luteus 4698; Table 2
Protocol: as §1

[10] = system: Bifidobacterium longum; assay: MIC against intestinal flora organisms, Bifidobacterium longum; type: cell-based; settings: Bifidobacterium longum NCTC 11818; Table 5
[11] = Stability in simulated intestinal fluid (SIF); type: in vitro ADME; settings: 37° C., analytical HPLC
Protocol: Nisin, mersacidin, compound I and compound III were tested for their susceptibility towards enzymatic digestion in the stomach. Nisin, mersacidin and compound III were tested for their susceptibility towards enzymatic digestion in the intestine. The SGF and SIF were based on the standard USP solutions for simulated gastric and simulated intestinal fluids and their activity confirmed against Bovine Serum Albumin (Hilger et al, Clin. Exp. Immunol. 2001, 123, 387-94). The compounds were incubated in SGF or SIF at 37° C. and their concentrations quantified by analytical HPLC (UV detection at 210 nm). The potential degradation of each compound was also monitored qualitatively by measuring in vitro antibacterial activity against Micrococcus luteus.
The rapid degradation of nisin in this medium supports the observation that the clinical utility of nisin for the treatment of colonic infections is very limited unless the compound can be protected from degradative enzymes by means of careful formulation.

[12] = system: Bacteroides fragilis; assay: MIC against intestinal flora organisms, Bacteroides fragilis; type: cell-based; settings: Bacteroides fragilis NCTC 9343; Table 5
[13] = system: S. constellatus; assay: MIC susceptibility testing, S. constellatus; type: cell-based; settings: S. constellatus GRL05065; Viridans streptococci; Table 3
Protocol: as §1

[14] = system: E. faecalis; assay: MIC susceptibility testing, E. faecalis; type: cell-based
Protocol: as §1

[15] = system: S. epidermidis; assay: MIC susceptibility testing, S. epidermidis; type: cell-based, Staphylococcus epidermidis
Protocol: as §1

[16] = system: S. salivarius; assay: MIC susceptibility testing, S. salivarius; type: cell-based; settings: S. salivarius GRL05064; Viridans streptococci; Table 3
Protocol: as §1

[17] = system: Clostridium difficile; assay: MIC, Clostridium difficile in Wilkins-Chalgren Anaerobe Agar; type: cell-based; settings: Table 4
Protocol: as §1

CCC(C)[C@@H]1NC(=O)[C@H](C(C)C)NC(=O)[C@H]2NC(=O)CNC(=O)[C@@H]3CS[C@@H](C)[C@@H](NC(=O)[C@H]4CSC[C@H](N)C(=O)N[C@@H](CO)C(=O)NCC(=O)N[C@@H](Cc5c[nH]c6ccccc56)C(=O)N[C@@H](C(C)C)C(=O)N4)C(=O)N[C@@H](CC(C)C)C(=O)N[C@@H](C(=O)N[C@@H](C(C)CC)C(=O)N[C@@H](CCC(=O)O)C(=O)N3)[C@H](C)SC[C@H](NC1=O)C(=O)N[C@@H](C)C(=O)N[C@H](C(=O)NCCO)C[S+]([O-])[C@H]2C (some centres unmarked) [Compound III, Actagardine N-[2-ethanolamine]monocarboxamide]
4 µg/mL: MIC [2] | Minimal Inhibitory Concentration (MIC) ([3]; E. faecium (VRE) (clinical isolate), Table 5, second isolate) | Minimal Inhibitory Concentration (MIC) ([3]; E. faecium (VSE) ATCC 29212, Table 5) | MIC ([3]; E. faecium GRL05031, Vancomycin resistant enterococci, Table 3) | MIC ([3]; E. faecium GRL05032, Vancomycin resistant enterococci, Table 3) | MIC [7] | MIC ([8]; S. mitis 1 7722543) | MIC ([8]; S. mitis 1 7863547) | MIC ([14]; E. faecalis 29212, Table 2) | MIC ([14]; E. faecalis GRL05029, Vancomycin sensitive enterococci, Table 3) | MIC ([14]; E. faecalis GRL05030, Vancomycin sensitive enterococci, Table 3)
8 µg/mL: MIC [1] | MIC ([8]; S. mitis GRL05062) | MIC ([14]; E. faecalis 7754422, Vancomycin sensitive enterococci, Table 3) | MIC ([14]; E. faecalis GRL05023, Vancomycin sensitive enterococci, Table 3) | MIC ([14]; E. faecalis GRL05024, Vancomycin sensitive enterococci, Table 3) | MIC ([14]; E. faecalis GRL05026, Vancomycin sensitive enterococci, Table 3) | MIC ([14]; E. faecalis GRL05027, Vancomycin sensitive enterococci, Table 3)
2 µg/mL: MIC ([17]; C. difficile 19126) | MIC ([17]; C. difficile 37779) | MIC ([17]; C. difficile B32) | MIC ([17]; C. difficile E16) | MIC ([17]; C. difficile E101) | MIC ([17]; C. difficile P24)
>32 µg/mL: MIC ([3]; E. faecium 7634337, Vancomycin resistant enterococci, Table 3) | MIC ([3]; E. faecium 7662769, Vancomycin resistant enterococci, Table 3) | MIC ([3]; E. faecium 7865229, Vancomycin sensitive enterococci, Table 3) | MIC ([3]; E. faecium 7865532, Vancomycin resistant enterococci, Table 3) | MIC ([3]; E. faecium 9709024, Vancomycin resistant enterococci, Table 3) | MIC ([3]; E. faecium 9710577, Vancomycin resistant enterococci, Table 3) | MIC [13] | MIC ([15]; S. epidermidis 7753921, Methicillin resistant, Table 3) | MIC ([15]; S. epidermidis 7755298, Methicillin resistant, Table 3) | MIC ([15]; S. epidermidis 7865688, Methicillin resistant, Table 3) | MIC ([15]; S. epidermidis GRL05001, Methicillin sensitive, Table 3) | MIC ([15]; S. epidermidis GRL05002, Methicillin sensitive, Table 3) | MIC ([15]; S. epidermidis GRL05005, Methicillin sensitive, Table 3) | MIC ([15]; S. epidermidis GRL05006, Methicillin sensitive, Table 3) | MIC ([15]; S. epidermidis GRL05007, Methicillin sensitive, Table 3) | MIC ([15]; S. epidermidis GRL05008, Methicillin sensitive, Table 3) | MIC ([15]; S. epidermidis GRL05009, Methicillin sensitive, Table 3) | MIC ([15]; S. epidermidis GRL05010, Methicillin sensitive, Table 3) | MIC ([15]; S. epidermidis GRL05011, Methicillin resistant, Table 3) | MIC ([15]; S. epidermidis GRL05013, Methicillin resistant, Table 3) | MIC ([15]; S. epidermidis GRL05014, Methicillin resistant, Table 3) | MIC ([15]; S. epidermidis GRL05015, Methicillin resistant, Table 3) | MIC ([15]; S. epidermidis GRL05017, Methicillin resistant, Table 3) | MIC ([15]; S. epidermidis GRL05019, Methicillin resistant, Table 3)
16 µg/mL: MIC ([3]; E. faecium 19579, Table 2) | MIC ([3]; E. faecium 19579, Vancomycin sensitive enterococci, Table 3) | Minimal Inhibitory Concentration (MIC) ([3]; E. faecium (VSE) ATCC 19579, Table 5) | MIC ([3]; E. faecium GRL05034, Vancomycin resistant enterococci, Table 3) | MIC ([3]; E. faecium GRL05035, Vancomycin resistant enterococci, Table 3) | MIC ([8]; S. mitis GRL05067)
64 µg/mL: MIC ([3]; E. faecium 7131121, Table 2) | Minimal Inhibitory Concentration (MIC) ([3]; E. faecium (VRE) (clinical isolate), Table 5, first isolate)
8 µg/mL and 4 µg/mL: MIC ([3]; E. faecium GRL05033, Vancomycin resistant enterococci, Table 3)
essentially stable: stability in SIF [11]
>64 µg/mL: Minimal Inhibitory Concentration (MIC) ([5]; E. coli ATCC 25922, Table 5) | Minimal Inhibitory Concentration (MIC) ([5]; E. coli DC2 (membrane more susceptible), Table 5, first line) | Minimal Inhibitory Concentration (MIC) ([5]; E. coli DC2 (membrane more susceptible), Table 5, second line) | Minimal Inhibitory Concentration (MIC) [6] | Minimal Inhibitory Concentration (MIC) [12]
1 µg/mL: MIC [9] | MIC [16] | MIC ([17]; C. difficile 027C) | MIC ([17]; C. difficile 027SM) | MIC ([17]; C. difficile E4) | MIC ([17]; C. difficile P49) | MIC ([17]; C. difficile P59) | MIC ([17]; C. difficile P62)
32 µg/mL: Minimal Inhibitory Concentration (MIC) [4] | Minimal Inhibitory Concentration (MIC) [10] | MIC ([15]; S. epidermidis GRL05003, Methicillin sensitive, Table 3) | MIC ([15]; S. epidermidis GRL05004, Methicillin sensitive, Table 3) | MIC ([15]; S. epidermidis GRL05020, Methicillin resistant, Table 3) | MIC ([15]; S. epidermis 11047, Table 2)
